Test results from patent publication US5736565A, “Therapeutic compounds suitable for the treatment of diseases connected with glutathione deficiency, process for their preparation, and pharmaceutical compositions containing same” (Prospa B.V., priority 1992, dated 1998).
“And” between values parts separate entries of the source, which are not always exact repeats. Equal entries are not always repeated. Peptide text beside a SMILES is read from it.

Legend:
[1] = Behaviour and death rate of the test groups under PSC treatment; details: in vivo
[2] = tested on: serum GPT; experiment: Test No. 4: dichloropropane (DCP) intoxication in vivo, serum GPT; parameters: species or system rat
Description: (§1) A test was carried out in vivo on four groups of four rats each, using, as a toxic substance, dichloropropane (DCP), the main constituent of several solvents. DCP is noxious both by ingestion and inhalation and has a notable toxicity to the liver, mediated by an almost total depletion of thiol groups, including those of GSH.
(§2) The experimental model involves the study of the effect of DCP toxicity in the rat, in respect of glutathione (GSH) concentration in the main target tissue: the liver.
(§3) Tests were carried out on four groups of rats. The first group of animals was administered 2 ml DCP/kg dissolved in oil (40% v/v) per os. Twenty-four hours after DCP administration, blood samples were taken for SGPT measurement, while the animals were sacrificed; small portions of liver were then excised and immediately deproteinized by homogenization in 6% PCA. The chromatographic analyses of GSH and GSSG (oxidized glutathione) were performed.
(§4) The second group of animals was treated with the test drug (600 mg/kg i.p.) two hours after DCP administration. The third and fourth groups were treated with N-acetyl-cysteine (NAC) (250 mg/kg i.p.) and, respectively, with glutathione (Tationil^R) (600 mg/kg i.p.).

[3] = tested on: DCP toxicity in the rat; experiment: Test No. 4: dichloropropane (DCP) intoxication in vivo, death rate and signs; details: DCP-treated rats
Description: as §1, §2, §3, §4

[4] = tested on: interleukin-2 (IL-2); experiment: Interleukin-2 (IL-2) production following interleukin-1 (IL-1) i.p. injection in young and old rats; type: in vivo, Sprague-Dawley rats; details: i.p. treated groups
Description: (§5) Sprague-Dawley rats (Charles River, Calco (CO)), aged 10 weeks (young adults) and 24 months (old), were stabled under standard conditions (24°±1° C., 12 h light/dark cycle, free access to food and water). Handlings were made in such a way as to avoid stressful stimuli.
(§6) The animals were stabled in groups of 6 per cage and treated for 2 weeks (15 days) with a PSC daily dose of 600 mg/kg by intraperitoneal route (i.p.).
With a view to evaluating a further aspect of the immunological activity in PSC-treated (600 mg/kg) animals, according to the aforementioned scheme, an investigation was carried out on interleukin-2 (IL-2) response to the injection of IL-1 that, as known, stimulates IL-2 production from lymphocytes.
Once the treatment was completed, each rat was administered IL-1 (0.1 mg/kg, i.p.). One hour after injection, the animals were killed by decapitation, the blood was collected and centrifuged, and the plasma maintained at -20° C. until IL-2 dosing.
The evaluation of IL-2 production was based on an immunological assay, utilizing a specific antibody produced in heterologous species against rat IL-2. Samples were assayed twice.
The controls are rats treated only with IL-1.

[5] = tested on: peripheral lymphocytes; experiment: Blastization with phytohaemagglutinin (PHA) of peripheral lymphocytes of PSC-treated rats; type: in vivo, Sprague-Dawley rats; details: 600 mg/kg i.p. 15 days + PHA
Description: as §5, §6
Once the treatment with PSC previously described in the paragraph "Animals" was completed, the animals, both young and old, were sacrificed by decapitation and the blood collected in heparin-treated tubes. The blood samples were stratified on Ficoll-Paque gradient and centrifuged at 2500 rpm for 15 min. The lymphocytic cellular fraction was taken by suction and washed three times with a Lphysiological solution (0.9% NaCl). At the end of the treatment, the cells were resuspended in culture medium RPMI 1640 containing 10% FBS, counted (1×10^5 cells/0.1 ml/well) and incubated for 48 hrs at 37° C., in a 5% carbon dioxide environment. At the incubation end, mitogens concavaline A (ConA) and phytohaemagglutinin (PHA) were added to the cultures at a concentration of 1 μg/ml in a volume of 0.1 ml. Eighteen hours later, tritiated thymidine (0.01 ml) was added to the cultures, subsequently incubated for 3 hrs. […] Radioactivity (dpm) was measured 2 min. using a β-counter. […]

[6] = tested on: splenocytes; experiment: Blastization with concavaline A (ConA) on splenocytes of PSC-treated young and old rats; type: in vivo, Sprague-Dawley rats
Description: as §5, §6
Once the treatment with PSC previously described in the paragraph "Animals" was completed, the animals were sacrificed by decapitation, spleens were excised under sterile conditions and broken up in a Petri dish. The splenocytes thus obtained by mechanical dispersion were placed in culture medium RPMI 1640 with addition of calf fetal serum (FBS) (10%).
The resulting cellular suspension was centrifuged at 2500 rpm for 20 min on Ficoll-Paque gradient. Stratified splenocytes were taken by a sterile Pasteur pipette and washed three times with sterile FBS. Cells were counted and placed onto 96-well plastic plates at a concentration of 1×10^5 /well in of volume of 0.1 ml. The cultures thus obtained were incubated for 48 hrs at 37° C., in a […] environment. Forty-eight hours later, concavaline A (ConcA) was added to the cultures at a concentration of 1 μg/ml in a volume of 0.1 ml. Eighteen hours later, tritiated thymidine was added (volume: 10 μl). Incorporation of tritiated thymidine was stopped after 3 hrs, by elimination of excess liquid by suction and by sucking the cells on fibreglass filters. Filters were placed in scintillation vials containing 5 ml of scintillating solution (Insta-Gel). Radioactivity (dpm) was measured during 2 min using a β-counter.
The results obtained on groups treated with ConA alone (controls), on groups treated with PSC (600 mg/kg), and on groups that had not been treated either with ConA or PSC are compared in Table 13.

[7] = tested on: Lewis lung carcinoma cells; experiment: Transplantable neoplasms: metastases development in BALB/c mice; type: in vivo
Description: Male adult BALB/c mice weighing 20 g were stabled under standard conditions (24°±1° C., 12 h light/dark cycle, free access to food and water). Handlings were made in such a way as to avoid stressful stimuli.
All animals, subdivided into groups of 6, were treated 4 weeks with a PSC dose (600 mg/kg). […] Treatment was continued two weeks after tumour inoculation. The mice were sacrificed and the tumoral mass growth and the development of metastases, if any, were evaluated.

[8] = 600 mg/kg i.p., 30 days' treatment, 15 days after inoculation

With CC(=O)SC[C@H](NC(=O)[C@@H]1CCC(=O)N1)C(=O)O [PSC, 2-(S)-(2-pyrrolidone-5-(S)-carbonyl amido)-3-acetylmercapto propionic acid] (HELM PEPTIDE1{[Glp].C}|PEPTIDE2{[ac]}$PEPTIDE1,PEPTIDE2,2:R3-1:R2$$$V2.0) the “behaviour and death rate of the test groups (in words)” value [1] was “did not significantly affect the behaviour and death rate of the various test groups”, the “death in tested groups (in words)” value [1] was “no death occurred in all tested groups” and the “GPT, average values” ([2]; DCP + 600 mg/kg i.p.) was 22.0 U/1. The “GPT, individual animals” value ([2]; DCP + 600 mg/kg i.p., animals 1-4, listed as (I) (R = CH3), 600 mg/kg) was 24.4 U/1 and 26.4 U/1 and 17.4 U/1 and 20.1 U/1, the “GPT” value ([2]; DCP + (I)(R=CH3)) was 22.0 U/l and the “Serum GPT (in words)” value ([2]; DCP-treated rats) was “maintained within standard limits”. For the same compound, the “behavioural (torpor) and postural (ataxia) disorders (in words)” value [3] was “did not show any notable modification of said parameters”, the “death (in words)” value [3] was “no death occurred” and the “macroscopic examination of liver (in words)” value [3] was “showed liver parenchyma within standard limits”. For the same compound, the “coagulative disorders (in words)” value ([3]; merely qualitative examination) was “absent”, the “IL-2 levels (in words)” value [4] was “significant increases were detected in the groups treated i.p. with PSC” and the “blastization (tritiated thymidine incorporation), Young” value [5] was 703 ± 44 DPM × 100. For the same compound, the “blastization (tritiated thymidine incorporation), Elderly” value ([5]; *P < 0.05) was 533 ± 29 DPM × 100, the “splenocytes blastization induced by ConA (in words)” value ([6]; 600 mg/kg) was “showed a significant increase in splenocytes blastization induced by ConA” and the “blastization (tritiated thymidine incorporation), Young” value ([6]; 600 mg/kg i.p. 15 days + ConA) was 1488 ± 62 DPM × 100. For the same compound, the “blastization (tritiated thymidine incorporation), Old” value ([6]; 600 mg/kg i.p. 15 days + ConA, *P < 0.05) was 1250 ± 11 DPM × 100, the “Mice with metastases, %” value [7, 8] was 33% and the Mice with metastases/group [7, 8] was 2/6. For the same compound, the “metastatic process (in words)” value ([7]; mouse, in vivo) was “slows down the metastatic process”.
